Assay results reported in patent publication US10624887B2, “Compositions of (-)-17-(cyclobutylmethyl)morphinan-3,14,-diol” (priority 2010, dated 2020).
Entries after “also recorded” stand apart in the source; their conditions may differ.

How the values were obtained:
[1] = Tail flick test, intra-gastric, intra-ileal and intra-colonic butorphanol; format: in vivo
Description: FIG. 13: Time-effect curves depicting antinociceptive effect of intra-gastric, intra-ileal and intra-colonic butorphanol in the tail flick test. The percent maximum possible effect (% MPE) is plotted versus time.
FIG. 14: Time-effect curves depicting antinociceptive effect of intra-gastric, intra-ileal and intra-colonic butorphanol in the tail flick test. The percent maximum possible effect (% MPE) is plotted versus time.

[2] = tested on: vincristine induced painful neuropathy; assay: Vincristine induced painful neuropathy, cold allodynia (acetone drop test); format: in vivo, Wistar rats; details: vincristine neuropathic rats
Description: The aim of this study was to evaluate the effect of oral administration of butorphanol in rats with vincristine induced painful neuropathy. The primary measurements were made mechanical and thermal allodynia designed to detect effects of the treatment(s) on neuropathic pain.
(§1) Wistar rats weighing 250±20 g were maintained on standard laboratory diet and having free access to tap water ad lib were employed in the present study. They were housed in the animal house and were exposed to 12 hr cycle of light and dark. The experiments were conducted in a semi-sound proof laboratory. Care of the animals was in accordance with guidelines for experimentation on animals.
The vincristine model was adapted from Authier et al (1999). Rats were injected on five alternate days (day 4, 6, 8, 10 & 12) with vincristine (200 μg/kg i.p.) using an injection volume of 2 ml/kg. Thus, the cumulative dose of vincristine was computed to be 1 mg/kg. Tests took place three days after the last injection and continued over the next three weeks. […]
For the assessment of cold allodynia, which was stable for 3 weeks, the rats were placed on a wire mesh covered with a plastic dome and were allowed to habituate until the exploratory behavior diminished. Cold allodynia was measured as the number of foot withdrawal responses after application of stimuli to the plantar surface of the paw. […] Acetone was applied two times (once every 5 min) on the left paw, and the number of reactions (shaking, tapping, or licking) was counted during 30 sec. […] The score was expressed as accumulated numbers of reactions over the trials and determined before and 30 and 60 min after administration of the test drugs. Each individual test was expressed as a percentage of maximum possible effect (% MPE): […]
MPE (%) at 30 min time point was employed as a quantitative measure of the analgesic effect of the test drugs.
(§2) The anti-nociceptive effect was plotted assessed having time (relative to dosing time point) on the x-axis and percent maximum possible effect (% MPE) on the y-axis. The results were expressed as mean±standard error of means (S.E.M.). […]

[3] = tested on: paclitaxel induced painful neuropathy; assay: Paclitaxel induced painful neuropathy, mechanical allodynia (von Frey filaments); format: in vivo, Wistar rats; details: paclitaxel neuropathic rats
Description: The aim of this study was to evaluate the effect of oral administration of butorphanol in rats with paclitaxel induced painful neuropathy. The primary measurements were made mechanical and thermal allodynia designed to detect effects of the treatment(s) on neuropathic pain.
as §1
Rats were injected on five alternate days (day 4, 6, 8, 10 & 12) with paclitaxel (2 mg/kg i.p.) using an injection volume of 2 ml/kg. Thus, the cumulative dose of paclitaxel was computed to be 10 mg/kg. […]
Mechano-allodynia was assessed using von Frey filaments. […] Both hind paws were tested for allodynia and the average of the two was recorded as data. Results were expressed in grams and determined before and 30 and 60 min after the administration of the test drugs.
as §2

[4] = oral; dosage form that models extended release
[5] = biological target: κ-opioid receptors (Homo sapiens, UniProt P41145); details: cited from earlier work
[6] = biological target: δ-opioid receptor (Homo sapiens, UniProt P41143); details: cited from earlier work
[7] = cited from earlier work

δ-opioid receptor, sequence (P41143 whole entry): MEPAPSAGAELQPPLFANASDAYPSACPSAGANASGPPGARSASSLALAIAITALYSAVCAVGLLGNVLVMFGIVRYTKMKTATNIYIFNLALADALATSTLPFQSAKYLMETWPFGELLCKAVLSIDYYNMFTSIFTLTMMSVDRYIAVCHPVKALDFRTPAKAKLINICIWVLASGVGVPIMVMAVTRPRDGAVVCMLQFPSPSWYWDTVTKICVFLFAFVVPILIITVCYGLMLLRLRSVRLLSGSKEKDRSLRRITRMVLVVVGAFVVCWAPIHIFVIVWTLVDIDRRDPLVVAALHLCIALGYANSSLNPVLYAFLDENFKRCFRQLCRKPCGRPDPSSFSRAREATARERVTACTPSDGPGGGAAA
κ-opioid receptors, sequence (P41145 whole entry): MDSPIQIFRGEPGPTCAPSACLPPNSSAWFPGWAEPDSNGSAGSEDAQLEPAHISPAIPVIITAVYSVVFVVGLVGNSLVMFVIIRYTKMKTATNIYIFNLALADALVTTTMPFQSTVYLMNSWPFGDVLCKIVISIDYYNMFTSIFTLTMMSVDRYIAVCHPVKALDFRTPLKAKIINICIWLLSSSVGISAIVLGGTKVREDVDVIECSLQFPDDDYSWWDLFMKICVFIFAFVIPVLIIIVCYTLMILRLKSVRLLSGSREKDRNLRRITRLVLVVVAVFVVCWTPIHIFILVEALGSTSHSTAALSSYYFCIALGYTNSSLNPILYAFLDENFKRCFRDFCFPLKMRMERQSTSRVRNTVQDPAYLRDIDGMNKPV

SMILES: Oc1ccc2c(c1)[C@@]13CCCC[C@@]1(O)[C@@H](C2)N(CC1CCC1)CC3 [butorphanol, (−)17-(Cyclobutylmethyl)morphinan-3,14-diol]
- antinociceptive effect, position of the % MPE time-effect curve ([1]; intra-colonic): Top curve
- antinociceptive effect, position of the % MPE time-effect curve ([1]; intra-gastric): bottom curve
- antinociceptive effect, position of the % MPE time-effect curve ([1]; intra-ileal): second from top curve
- cold allodynia score ([2]; oral 1, 3, 10, 30 mg/kg, FIG. 16): dose dependent decrease
- cold allodynia withdrawal threshold in comparison to the control readings ([2]; oral): significant increase
- time of peak effect post-administration (cold allodynia) ([2]; oral): 30 min
- time of peak effect post-administration (mechanical allodynia) ([3]; oral): 30 min
- mechanical withdrawal threshold ([3]; p.o. 0.01, 0.03, 0.1, 0.3 mg/kg, FIG. 17): dose dependent increase; also recorded: significant increase
- therapeutic effect [4]: robust therapeutic effects
- activity at κ-opioid receptors [5]: pure agonist
- activity at the δ-opioid receptor [6]: preponderantly antagonist activity
- mean half-life ([7]; in vivo): about 5 hours
- oral bioavailability ([7]; widely reported): poor
